This is an account of results in patent US8685977B2, “Chemical compounds” (Pfizer Limited, priority 2010, dated 2014).

The test deals with T1, Nav1.7 (or SCN9A) channel (Homo sapiens, UniProt Q15858).
T1 construct: expressed in transfected cells
T1 sequence (Q15858 whole entry): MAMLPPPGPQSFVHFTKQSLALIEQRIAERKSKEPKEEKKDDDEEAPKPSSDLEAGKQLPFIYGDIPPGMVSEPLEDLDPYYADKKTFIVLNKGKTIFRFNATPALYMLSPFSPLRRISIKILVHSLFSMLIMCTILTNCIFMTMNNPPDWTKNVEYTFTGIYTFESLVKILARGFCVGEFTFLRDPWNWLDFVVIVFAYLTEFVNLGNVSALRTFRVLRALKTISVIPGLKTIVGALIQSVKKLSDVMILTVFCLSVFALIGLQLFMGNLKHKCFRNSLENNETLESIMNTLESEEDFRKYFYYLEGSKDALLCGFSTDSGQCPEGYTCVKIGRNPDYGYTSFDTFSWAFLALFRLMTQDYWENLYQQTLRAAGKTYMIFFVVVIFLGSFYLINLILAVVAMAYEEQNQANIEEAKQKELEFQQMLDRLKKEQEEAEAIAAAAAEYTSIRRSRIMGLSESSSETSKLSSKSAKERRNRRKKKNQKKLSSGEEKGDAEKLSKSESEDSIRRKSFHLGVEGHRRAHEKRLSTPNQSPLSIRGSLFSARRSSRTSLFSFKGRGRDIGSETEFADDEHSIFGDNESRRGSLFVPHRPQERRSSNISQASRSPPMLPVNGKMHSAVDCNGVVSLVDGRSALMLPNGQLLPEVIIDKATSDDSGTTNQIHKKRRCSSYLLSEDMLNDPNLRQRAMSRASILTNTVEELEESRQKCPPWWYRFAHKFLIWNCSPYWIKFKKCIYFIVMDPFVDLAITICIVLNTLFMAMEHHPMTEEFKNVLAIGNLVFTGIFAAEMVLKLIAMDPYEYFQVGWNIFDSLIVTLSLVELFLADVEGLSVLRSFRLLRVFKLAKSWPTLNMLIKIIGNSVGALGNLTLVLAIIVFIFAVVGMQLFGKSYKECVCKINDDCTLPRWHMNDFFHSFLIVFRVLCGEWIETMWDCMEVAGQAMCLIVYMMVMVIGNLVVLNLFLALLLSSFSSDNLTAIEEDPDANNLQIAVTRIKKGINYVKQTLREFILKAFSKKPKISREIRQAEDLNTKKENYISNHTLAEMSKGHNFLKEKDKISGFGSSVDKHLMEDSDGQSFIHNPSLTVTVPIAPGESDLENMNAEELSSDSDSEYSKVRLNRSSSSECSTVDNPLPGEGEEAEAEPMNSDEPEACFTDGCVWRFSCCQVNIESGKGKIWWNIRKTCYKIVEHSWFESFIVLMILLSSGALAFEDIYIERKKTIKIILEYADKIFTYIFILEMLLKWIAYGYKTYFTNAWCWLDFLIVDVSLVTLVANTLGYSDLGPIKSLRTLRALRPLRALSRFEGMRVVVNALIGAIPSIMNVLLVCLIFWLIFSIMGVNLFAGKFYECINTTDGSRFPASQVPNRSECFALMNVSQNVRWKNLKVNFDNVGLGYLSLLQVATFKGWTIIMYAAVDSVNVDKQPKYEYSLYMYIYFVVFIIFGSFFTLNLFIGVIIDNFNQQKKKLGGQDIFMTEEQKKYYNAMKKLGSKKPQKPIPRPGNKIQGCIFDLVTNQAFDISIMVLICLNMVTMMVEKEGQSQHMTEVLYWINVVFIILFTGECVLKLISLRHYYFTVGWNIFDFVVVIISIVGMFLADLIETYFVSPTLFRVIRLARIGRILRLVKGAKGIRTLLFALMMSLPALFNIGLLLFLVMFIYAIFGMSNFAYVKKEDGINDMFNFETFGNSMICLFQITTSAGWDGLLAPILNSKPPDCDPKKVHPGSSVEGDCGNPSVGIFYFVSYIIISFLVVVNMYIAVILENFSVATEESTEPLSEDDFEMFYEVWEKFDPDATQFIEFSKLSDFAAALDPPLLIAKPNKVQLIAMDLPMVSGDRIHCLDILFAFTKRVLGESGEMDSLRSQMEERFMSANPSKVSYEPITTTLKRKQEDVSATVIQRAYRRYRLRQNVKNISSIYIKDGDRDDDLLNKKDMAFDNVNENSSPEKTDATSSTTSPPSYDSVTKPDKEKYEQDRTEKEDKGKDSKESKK
Briefly: Nav1.7 PatchXpress 7000 automated electrophysiology assay (HEK cells stably expressing hSCN9A). In kind it is cell-based. Conditions: voltage-clamped at V1/2 of inactivation, read-out: Nav1.7 EIC50. As to the method: The ability of the compounds of formula (I) to block the Nav1.7 (or SCN9A) channel was measured using the assays described below.
Human Embryonic Kidney (HEK) cells were transfected with an hSCN9A construct using lipofectamine reagent (Invitrogen), using standard techniques. Cells stably expressing the hSCN9A constructs were identified by their resistance to G-418 (400 μg/ml). Clones were screened for expression using the whole-cell voltage-clamp technique.
HEK cells stably transfected with hSCN9A were maintained in DMEM medium supplemented with 10% heat-inactivated fetal bovine serum and 400 μg/ml G-418 in an incubator at 37° C. with a humidified atmosphere of 10% CO2. For HTS, cells were harvested from flasks by trypsinization and replated in an appropriate multi-well plate (typically 96 or 384 wells/plate) such that confluence would be achieved within 24 hours of plating. For electrophysiological studies, cells were removed from the culture flask by brief trypsinization and re-plated at low density onto glass cover slips. Cells were typically used for electrophysiological experiments within 24 to 72 hours after plating.
Cover slips containing HEK cells expressing hSCN9A were placed in a bath on the stage of an inverted microscope and perfused (approximately 1 ml/minutes) with extracellular solution of the following composition: 138 mM NaCl, 2 mM CaCl2, 5.4 mM KCl, 1 mM MgCl2, 10 mM glucose, and 10 mM HEPES, pH 7.4, with NaOH. […] The osmolarity of the extracellular and intracellular solutions was 300 mOsm/kg and 295 mOsm/kg, respectively. All recordings were made at room temperature (22-24° C.) using AXOPATCH 200B amplifiers and PCLAMP software (Axon Instruments, Burlingame, Calif.).
HEK cells stably transfected with hSCN9A were viewed under Hoffman contrast optics and placed in front of an array of flow pipes emitting either control or compound-containing extracellular solutions. All compounds were dissolved in dimethyl sulfoxide to make 10 mM stock solutions, which were then diluted into extracellular solution to attain the final concentrations desired. […] The voltage-dependence of inactivation was determined by applying a series of depolarizing prepulses (8 sec long in 10 mV increments) from a negative holding potential. The voltage was then immediately stepped to 0 mV to assess the magnitude of the sodium current. Currents elicited at 0 mV were plotted as a function of prepulse potential to allow estimation of the voltage at which 50% of the channels were inactivated (midpoint of inactivation or V1/2). Compounds were tested for their ability to inhibit hSCN9A sodium channels by activating the channel with a 20 msec voltage step to 0 mV following an 8 second conditioning prepulse to the empirically determined V1/2. Compound effect (% inhibition) was determined by difference in current amplitude before and after application of test compounds. For ease of comparison, “estimated IC-50” (EIC50) values were calculated from single point electrophysiology data by the following equation, (tested concentration, uM)×(100-% inhibition/% inhibition). Inhibition values <20% and >80% were excluded from the calculation.
Electrophysiological assays were conducted with PatchXpress 7000 hardware and associated software (Molecular Devices Corp). All assay buffers and solutions were identical to those used in conventional whole-cell voltage clamp experiments described above. hSCN9A cells were grown as above to 50%-80% confluency and harvested by trypsinization. Trypsinized cells were washed and resuspended in extracellular buffer at a concentration of 1×10^6 cells/ml. The onboard liquid handling facility of the PatchXpress was used for dispensing cells and application of test compounds. Determination of the voltage midpoint of inactivation was as described for conventional whole-cell recordings. Cells were then voltage-clamped to the empirically determined V1/2 and current was activated by a 20 msec voltage step to 0 mV. […]
Turning to `O=C(NS(=O)(=O)C1CC1)c1ccc(Oc2ccc(Cl)c(C(F)(F)F)c2)cc1` [Example 1, 4-[4-Chloro-3-(trifluoromethyl)phenoxy]-N-(cyclopropylsulfonyl)benzamide], the IC50 was determined as 810 nM. To `CS(=O)(=O)NC(=O)c1cc(Cl)c(Oc2ccc(Cl)c(Cl)c2)cc1F` [Example 2, 5-Chloro-4-(3,4-dichlorophenoxy)-2-fluoro-N-(methylsulfonyl)benzamide] belongs 64 nM; to `CCc1cc(Cl)ccc1Oc1cc(F)c(C(=O)NS(C)(=O)=O)cc1F` [Example 3, 4-(4-Chloro-2-ethylphenoxy)-2,5-difluoro-N-(methylsulfonyl)benzamide], 1700 nM. Take `CCc1cc(C(=O)NS(C)(=O)=O)ccc1Oc1ccc(Cl)c(Cl)c1` [Example 4, 4-(3,4-Dichlorophenoxy)-3-ethyl-N-(methylsulfonyl)benzamide]: the IC50 came to 250 nM. To `CS(=O)(=O)NC(=O)c1cc(Cl)c(Oc2ccc(OC(F)(F)F)c(Cl)c2)cc1F` [Example 7, 5-chloro-4-[3-chloro-4-(trifluoromethoxy)phenoxy]-2-fluoro-N-(methylsulfonyl)benzamide] belongs 25 nM. Then `Cc1cc(C(=O)NS(C)(=O)=O)c(F)cc1Oc1ccc(Cl)c(C(F)(F)F)c1` [Example 8, 4-[4-chloro-3-(trifluoromethyl)phenoxy]-2-fluoro-5-methyl-N-(methylsulfonyl)benzamide], with 35 nM. To `CS(=O)(=O)NC(=O)c1cc(Cl)c(Oc2ccc(C(F)(F)F)c(Cl)c2)cc1F` [Example 9, 5-chloro-4-(3-chloro-4-(trifluoromethyl)phenoxy)-2-fluoro-N-(methylsulfonyl)benzamide] belongs 47 nM; to `COc1cc(C(=O)NS(C)(=O)=O)ccc1Oc1ccc(Cl)c(Cl)c1` [Example 10, 4-(3,4-dichlorophenoxy)-3-methoxy-N-(methylsulfonyl)benzamide], 970 nM. For the compound `CS(=O)(=O)NC(=O)c1cc(Cl)c(Oc2ccc(Cl)cc2OC(F)F)cc1F` [Example 11, 5-chloro-4-[4-chloro-2-(difluoromethoxy)phenoxy]-2-fluoro-N-(methylsulfonyl)benzamide], the IC50 came out at 430 nM. For the compound `CS(=O)(=O)NC(=O)c1cc(F)c(Oc2ccc(OC(F)F)c(Cl)c2)cc1F` [Example 13, 4-[3-chloro-4-(difluoromethoxy)phenoxy]-2,5-difluoro-N-(methylsulfonyl)benzamide], the IC50 came out at 2500 nM. Turning to `CS(=O)(=O)NC(=O)c1ccc(Oc2ccc(Cl)c(C(F)(F)F)c2)cc1F` [Example 14, 4-(4-chloro-3-(trifluoromethyl)phenoxy)-2-fluoro-N-(methylsulfonyl)benzamide], the IC50 was determined as 850 nM.

As to `CS(=O)(=O)NC(=O)c1ccc(Oc2ccc(Cl)c(C(F)(F)F)c2)cc1` [Example 15, 4-[4-chloro-3-(trifluoromethyl)phenoxy]-N-(methylsulfonyl)benzamide], the IC50 amounted to 930 nM.

Turning to `CS(=O)(=O)NC(=O)c1cc(Cl)c(Oc2ccc(Cl)c(C(F)(F)F)c2)cc1F` [Example 16, 5-chloro-4-[4-chloro-3-(trifluoromethyl)phenoxy]-2-fluoro-N-(methylsulfonyl)benzamide], the IC50 worked out at 40 nM.

For `CS(=O)(=O)NC(=O)c1cc(Cl)c(Oc2ccc(Cl)c(OC(F)(F)F)c2)cc1F` [Example 17, 5-chloro-4-[4-chloro-3-(trifluoromethoxy)phenoxy]-2-fluoro-N-(methylsulfonyl)benzamide], the IC50 is 32 nM.

For the compound `CCc1cc(F)ccc1Oc1cc(F)c(C(=O)NS(C)(=O)=O)cc1Cl` [Example 18, 5-chloro-4-(2-ethyl-4-fluorophenoxy)-2-fluoro-N-(methylsulfonyl)benzamide], the IC50 was 370 nM. Then `CCc1cc(F)ccc1Oc1ccc(C(=O)NS(C)(=O)=O)c(F)c1` [Example 19, 4-(2-ethyl-4-fluorophenoxy)-2-fluoro-N-(methylsulfonyl)benzamide], with above 1000 nM.
